Patent US6403590B1, “Use of certain isoquinolinesulfonyl compounds for the treatment of glaucoma and ocular ischemia” (Alcon Laboratories, Inc., priority 1995, dated 2002)

Experiments:
[1] = tested on: laser-induced hypertensive primates; assay: IOP in laser-induced ocular hypertensive monkeys (lasered MIOP), topical dosing; format: in vivo, monkey; details: for MIOP IOP % Reduction, 1 hour: 1 hour post-dose; for MIOP IOP % Reduction, 3 hours: 3 hours post-dose; for MIOP IOP % Reduction, 6 hours: 6 hours post-dose
Procedure: Monkey intraocular pressure (MIOP) were obtained from laser-induced hypertensive primates in the manner described in Examples 1 and 4 below at 1, 3, and 6 hours post-dose.
(§1) The hydrochloride salt of Compound II, also known as fasudil hydrochloride or just fasudil, was topically administered to eyes of ocular normotensive and hypertensive monkeys, New Zealand Albino (NZA) and Dutch Belted (DB) rabbits.

[2] = tested on: Bulbar Conjunctiva (conjunctival hyperemia); assay: Guinea pig conjunctival hyperemia model; format: in vivo; details: cumulative incidence; percent of eyes scoring +2 or more; scored 1, 2, 3, 4 hours after instillation
Procedure: A guinea pig model was used to assess the potential of the compounds to cause conjunctival hyperemia as measured by vasodilation. Compound was instilled and hyperemia was scored at 1, 2, 3, and 4 hours following dosing. Reported above is the cumulative incidence of hyperemia over the 4 hour period. Incidence of hyperemia (Bulbar Conjunctiva) was calculated as the percent of eyes scoring +2 or more, according to the following graded scale: 0 Normal appearance of vessels at limbus and rectus muscle 1 Enlargement of vessels normally visible at limbus and rectus muscle 2 Branching of vessels at limbus, additional vessels visible 3 Additional vessels visible in open bulbar conjunctival areas 4 Diffuse redness in open bulbar conjunctival areas

[3] = tested on: New Zealand Albino (NZA) rabbit; assay: IOP in New Zealand Albino rabbits, topical dosing; format: in vivo; details: four hour dose response
Procedure: as §1
A dose study similar to that described in Example 2 was conducted with the NZA rabbit. Compound II (hydrochloride) was administered in a topical ocular fashion in doses of 50, 125 and 250 μg.
Other isoquinolinesulfonamides were topically administered to the eyes of New Zealand Albino (NZA) rabbits.
All drugs were administered to eyes in a topical manner at a dose=500 μg (2×25 μl). All compounds were formulated in phosphate buffered saline containing 0.01% benzalkonium chloride, and in all instances N=7.

[4] = tested on: ocular normotensive monkey; assay: IOP in ocular normotensive monkeys, topical dosing; format: in vivo, cynomolgus monkey
Procedure: as §1
The effect of repeated doses of Compound II on the magnitude and duration of IOP reduction was evaluated in ocular normotensive monkeys.

[5] = tested on: Dutch Belted (DB) rabbit; assay: IOP in Dutch Belted rabbits, topical dosing; format: in vivo
Procedure: as §1
Compound II (hydrochloride) was administered topically to the eyes of Dutch Belted (DB) rabbits in doses of 75 and 150 μg.

Compound | MIOP IOP % Reduction, 1 hour ([1]; dose 500 μg) [%] | MIOP IOP % Reduction, 3 hours ([1]; dose 500 μg) [%] | MIOP IOP % Reduction, 6 hours ([1]; dose 500 μg) [%] | Guinea Pig Hyperemia (Cumulative over 4 hours) [2] [%] | MIOP IOP % Reduction, 1 hour ([1]; dose 1000 μg) [%] | MIOP IOP % Reduction, 3 hours ([1]; dose 1000 μg) [%] | MIOP IOP % Reduction, 6 hours ([1]; dose 1000 μg) [%] | IOP lowering effect ([1]; laser-induced hypertensive primates, compared with the other compounds of Example E) | IOP lowering ([1]; ocular hypertensive (laser-induced) primates, topical) | IOP lowering [3] | IOP reduction after repeated doses ([4]; ocular normotensive monkeys, total of 900 μg in three doses, ten minutes apart) | IOP lowering ([4]; ocular normotensive primates, topical) | IOP lowering [5]
O=S(=O)(c1cccc2c(Cl)nccc12)N1CCNCC1 [1-(1-chloro-5-isoquinolinesulfonyl)-piperazine] | 7.9 | 11.9 | 9.4 | 10 | – | – | – | – | – | – | – | – | –
CC1CN(S(=O)(=O)c2cccc3cnccc23)CCN1 (stereo not shown) [Example H-7, 1-(5-isoquinolinesulfonyl)-3-methylpiperazine] | – | – | – | 0 | 30.9 | 20.9 | 11.6 | – | – | – | – | – | –
CC1CN(S(=O)(=O)c2cccc3cnccc23)C(C)CN1 (stereo not shown) [D, 1-(5-isoquinolinesulfonyl)-2,5-dimethylpiperazine] | 36.3 | 32.8 | 19.3 | 20 | – | – | – | markedly superior IOP lowering effect | – | – | – | – | –
O=S(=O)(c1cccc2cnccc12)N1CCCNCC1 [Fasudil, hexahydro-1-(5-isoquinolinylsulfonyl)-1H-1,4-diazepine] | 21.9 | 14.6 | 23.4 | 75 | – | – | – | – | effectively lowered IOP | IOP was marketedly lowered below base line | significant IOP reduction | effectively lowered IOP | lowered IOP in the DB rabbit; however, the reduction in IOP was not sustained
